The record followed here is patent publication US11426371B2, “Compositions and methods for treating cancer” (University of Virginia Patent Foundation, priority 2017, dated 2022).

Assay [1] relates to normal samples (PBMCs and/or CD34+ cells). Description: Viability of normal samples, MTS and Cell Titer Glo (FIG. 4, Table 2). It is filed as cell-based. Conditions: 24 hours. The protocol: (§1) AML cell lines and normal samples (PBMCs and/or CD34+ cells) were treated for 24 hours with SACLAC (FIG. 4A-7 cell lines) and similar AC inhibitor SABRAC (2-bromo-N-((2S,3R)-1,3-dihydroxyoctadecan-2-yl)acetamide) (FIG. 4B-four cell lines). Viability was assessed by MTS and Cell Titer Glo viability assays. EC50 values (FIG. 4C) were graphed to visualize fold-change between AML and normal cells with treatment of each compound. […] Cells tested for SABRAC were HL60/VCR and OCI-AML2 AML cell lines and two normal PBMC control samples (PBMC1 and PBMC2). The same four cell types were tested for SACLAC, as well as the AML cell line THP-1 and two normal CD34+ cell control samples (CD34+1 and CD34+2).
(§2) Next, we tested the toxicity of SACLAC and a similar published AC inhibitor SABRAC^17 to normal hematopoietic cells to ensure that AML cells are selectively targeted by the compound (FIG. 4A). […] This degree of selectivity was unexpected but extremely important for potential clinical use. […] This remarkable increase in selectivity is a surprising discovery that greatly exceeds the predicted similarity in compound behavior that one may expect with a simple substitution of one halogen for another (Cl for Br).

Assay [2] concerns AML cell lines (HL60/VCR, OCI-AML2, THP-1). Kind of assay: Viability of AML cell lines, MTS and Cell Titer Glo (FIGS. 2, 4, Table 2). The format is cell-based, human. The following applies: 24 hours. The protocol: Representative human AML cell lines (FIG. 2A; upper and lower panels) HL60/VCR and (FIG. 2B; upper and lower panels) OCI-AML2 were treated with SACLAC for 24 and 48 hours. Viability was assessed by MTS assay at 24 and 48 hours and apoptosis was assessed by flow cytometry at 48 hours. Upper panels represent % viability and lower panels indicate % apoptosis.
as §1, §2
(In general: In ATP-based viability assays light output follows the ATP content of the culture.)

The structures appear in SMILES notation. Read-outs that look alike come from different tables or passages of the source.

`CCCCCCCCCCCCCCC[C@@H](O)[C@H](CO)NC(=O)CBr` [SABRAC, 2-bromo-N-((2S,3R)-1,3-dihydroxyoctadecan-2-yl)acetamide, reference compound]: the EC50 (usually the concentration at which the effect is half-maximal) in assay [1] (SACLAC: PBMC1, PBMC2, CD34+1, CD34+2, SABRAC: PBMC1, PBMC2, order of samples not given, read-out: EC50, single normal samples (FIG. 4A, 4B)) is 600 nM; in assay [1] (PBMC, 24 h, mean of normal samples (PBMCs and/or CD34+ cells), read-out: EC50 Normal), 450 nM; in assay [2] (Homo sapiens, 24 h, mean of AML cell lines, read-out: EC50 AML), 360 nM. Further, the “Fold Change” value in assay [2] (EC50 Normal versus EC50 AML) is listed as 1.25.
